In patent US20070037821A1, “Nitrosated glutamic acid compounds, compositions and methods of use” (NITROMED, INC., priority 2003, published 2007):

In the case of Cl.N[C@@H](CCC(=O)OCCCO[N+](=O)[O-])C(=O)O, the melting point is reported as 137 to 139 °C. With Cl.N[C@@H](CCC(=O)OC(CO[N+](=O)[O-])CO[N+](=O)[O-])C(=O)O the melting point was 139 °C (dec.). Work on CC(C)(COC(=O)CC[C@H](N)C(=O)O)CO[N+](=O)[O-].Cl yielded a melting point of 132 to 135 °C. Cl.N[C@@H](CCC(=O)OCc1ccc(CO[N+](=O)[O-])cc1)C(=O)O showed a melting point of 135 to 138 °C. In the case of Cl.N[C@@H](CCC(=O)OCC#CCO[N+](=O)[O-])C(=O)O, the melting point is reported as 107 to 110 °C. With Cl.N[C@@H](CCC(=O)N1CCCC(CO[N+](=O)[O-])C1)C(=O)O (some centres unmarked) the melting point was 70 to 72 °C (dec.). In the case of Cl.N[C@@H](CCC(=O)OCCCC(CO[N+](=O)[O-])O[N+](=O)[O-])C(=O)O (some centres unmarked), the melting point is reported as 90 to 94 °C. In the case of Cl.N[C@@H](CCC(=O)N1CCC(CCO[N+](=O)[O-])CC1)C(=O)O, the melting point is reported as 137 to 140 °C. Cl.N[C@@H](CCC(=O)NCCCO[N+](=O)[O-])C(=O)O showed a melting point of 57 to 60 °C. Compound CC(C)(CNC(=O)CC[C@H](N)C(=O)O)CO[N+](=O)[O-].Cl has a melting point of 65 to 68 °C. Work on Cl.N[C@@H](CCC(=O)O[C@H]1CO[C@H]2[C@@H]1OC[C@H]2O[N+](=O)[O-])C(=O)O (stereo in doubt) yielded a melting point of 160 to 162 °C.
